In patent US20090131304A1, “Semi-Synthetic Desmethyl-Vancomycin-Based Glycopeptides With Antibiotic Activity” (Novartis Vaccines and Diagnostics, Inc., priority 2005, published 2009):
In brackets after ≈: the same amount, converted by molar mass. Read-outs that look alike come from different tables or passages of the source.

Tests used:
Assay type in all cases: cell-based
[1] = tested on: methicillin-susceptible Staphylococus aureus (MSSA); assay: MIC, NCCLS microdilution broth procedure, MSSA; conditions: for MIC: Staphylococcus aureus, read-out: minimum inhibitory concentration (MIC)
Description: (§1) The following table identifies specific species of compounds according to the present invention and information concerning their associated antibacterial activity. The antibacterial activity of three compounds in accordance with the present invention (N-biphenyl-methyl-norvacomycin (A); N-chloro-biphenyl-methyl-norvacomycin (B) and desmethyl-vancomycin-gly-p-n-octyloxybenzyl (C)) were tested and compared to unmodified vancomycin (Van) and norvancoycin (Nor). MIC (minimum inhibitory concentration) was measured according to NCCLS standards using the microdilution broth procedure. Serial dilutions of the compounds were placed in a 96-well microplate containing Mueller-Hinton medium. Based on absorbance of 600 nm, diluted overnight cultures were placed in the wells at a final concentration of 5×10^5 cfu/mL. The plate was then placed in a culture box at 35° C. The next day, MIC was determined by visual observation of the plates.
(§2) The glycopeptides were tested against a variety of strains well known in the art for such testing, including methicillin-susceptible Staphylococus aureus (MSSA), methicillin-susceptible Staphylococus epidermidis (MSSE), methicillin-resistant Staphylococus aureus (MRSA), methicillin-resistant Staphylococus epidermidis (MRSE), and glycopeptide-intermediate Staphylococus aureus (GISA). Results are shown in the Table 1 as minimum inhibitory concentration (MIC) in units of μg/ml: […]

[2] = tested on: methicillin-resistant Staphylococus aureus (MRSA); assay: MIC, NCCLS microdilution broth procedure, MRSA; conditions: for MIC: Staphylococcus aureus, MRSA
Description: as §1, §2

[3] = tested on: methicillin-susceptible Staphylococus epidermidis (MSSE); assay: MIC, NCCLS microdilution broth procedure, MSSE; conditions: for MIC: read-out: minimum inhibitory concentration (MIC)
Description: as §1, §2

[4] = tested on: methicillin-resistant Staphylococus epidermidis (MRSE); assay: MIC, NCCLS microdilution broth procedure, MRSE; conditions: for MIC: Staphylococcus epidermidis, read-out: minimum inhibitory concentration (MIC)
Description: as §1, §2

[5] = tested on: glycopeptide-intermediate Staphylococus aureus (GISA) (V); assay: MIC, NCCLS microdilution broth procedure, GISA (V)
Description: as §1, §2

[6] = tested on: glycopeptide-intermediate Staphylococus aureus (GISA) (D); assay: MIC, NCCLS microdilution broth procedure, GISA (D)
Description: as §1, §2

[7] = MRSA strain # 134, read-out: minimum inhibitory concentration (MIC)
[8] = MRSA strain # 143, read-out: minimum inhibitory concentration (MIC)
[9] = GISA (V) strain # 68, read-out: minimum inhibitory concentration (MIC)
[10] = GISA (V) strain # 143, read-out: minimum inhibitory concentration (MIC)
[11] = GISA (D) strain # 68, read-out: minimum inhibitory concentration (MIC)
[12] = read-out: minimum inhibitory concentration (MIC)

MIC ([1]; MSSA strain # 68) [µg/mL] | MIC [2, 7] [µg/mL] | MIC [2, 8] [µg/mL] | MIC ([3]; MSSE strain # 3) [µg/mL] | MIC ([4]; MRSE strain # 24) [µg/mL] | MIC [5, 9] [µg/mL] | MIC [5, 10] [µg/mL] | MIC [6, 11] [µg/mL] | SMILES | minimum inhibitory concentration (MIC) ([1]; MSSA strain # 83) [µg/mL] | minimum inhibitory concentration (MIC) ([3]; MSSE strain # 10) [µg/mL] | minimum inhibitory concentration (MIC) ([4]; MRSE strain # 25) [µg/mL] | minimum inhibitory concentration (MIC) ([4]; MRSE strain # 26) [µg/mL] | minimum inhibitory concentration (MIC) ([6]; GISA (D) strain # 143) [µg/mL] | MIC ([1]; MSSA) [µg/mL] | MIC [3] [µg/mL] | MIC ([4]; MRSE) [µg/mL] | minimum inhibitory concentration (MIC) ([2]; MRSA strain # 143) [µg/mL] | minimum inhibitory concentration (MIC) ([5]; GISA (V) strain # 143) [µg/mL] | also measured
2 (≈ 1.25 µM) | 2 (≈ 1.25 µM) | 4 (≈ 2.5 µM) | 4 (≈ 2.5 µM) | 4 (≈ 2.5 µM) | 8 (≈ 5 µM) | 4 (≈ 2.5 µM) | 8 (≈ 5 µM) | CC(C)C[C@H](N)C(=O)N[C@H]1C(=O)N[C@@H](CC(N)=O)C(=O)N[C@H]2C(=O)N[C@H]3C(=O)NC(C(=O)N[C@H](C(=O)O)c4cc(O)cc(O)c4-c4cc3ccc4O)[C@H](O)c3ccc(c(Cl)c3)Oc3cc2cc(c3OC2O[C@H](CO)[C@@H](O)[C@H](O)C2O[C@H]2C[C@](C)(NCc3ccc(-c4ccccc4)cc3)[C@H](O)[C@H](C)O2)Oc2ccc(cc2Cl)[C@H]1O (some centres unmarked) [Compound A, N-Biphenyl-Methyl-Desmethyl-vancomycin] | 2 (≈ 1.25 µM) | 4 (≈ 2.5 µM) | 4 (≈ 2.5 µM) | 4 (≈ 2.5 µM) | 8 (≈ 5 µM) | – | – | – | – | – | –
– | – | – | – | – | – | – | – | CCCCCCCCOc1ccc(CNCC(=O)N[C@@]2(C)C[C@H](OC3C(Oc4c5cc6cc4Oc4ccc(cc4Cl)[C@@H](O)[C@@H](NC(=O)[C@@H](N)CC(C)C)C(=O)N[C@@H](CC(N)=O)C(=O)N[C@H]6C(=O)N[C@H]4C(=O)NC(C(=O)N[C@H](C(=O)O)c6cc(O)cc(O)c6-c6cc4ccc6O)[C@H](O)c4ccc(c(Cl)c4)O5)O[C@H](CO)[C@@H](O)[C@@H]3O)O[C@@H](C)[C@H]2O)cc1 (some centres unmarked) [Compound C, Desmethyl-vancomycin-Gly-p-n-Octyloxybenzyl] | 2 (≈ 1.17 µM) | 1 (≈ 0.585 µM) | 2 (≈ 1.17 µM) | 2 (≈ 1.17 µM) | 4 (≈ 2.34 µM) | 2 (≈ 1.17 µM) | 1 (≈ 0.585 µM) | 2 (≈ 1.17 µM) | – | – | MIC ([2]; read-out: minimum inhibitory concentration (MIC), MRSA strain # 134): 2 µg/mL (≈ 1.17 µM); MIC ([2]; read-out: minimum inhibitory concentration (MIC), MRSA strain # 143): 1 µg/mL (≈ 0.585 µM); MIC ([5]; read-out: minimum inhibitory concentration (MIC), GISA (V) strain # 68): 4 µg/mL (≈ 2.34 µM); MIC ([5]; read-out: minimum inhibitory concentration (MIC), GISA (V) strain # 143): 2 µg/mL (≈ 1.17 µM); MIC [6, 12]: 4 µg/mL (≈ 2.34 µM)
– | – | – | – | – | – | – | – | CC(C)C[C@@H](N)C(=O)N[C@H]1C(=O)N[C@@H](CC(N)=O)C(=O)N[C@H]2C(=O)N[C@H]3C(=O)N[C@H](C(=O)N[C@H](C(=O)O)c4cc(O)cc(O)c4-c4cc3ccc4O)[C@H](O)c3ccc(c(Cl)c3)Oc3cc2cc(c3O[C@@H]2O[C@H](CO)[C@@H](O)[C@H](O)[C@H]2O[C@H]2C[C@](C)(N)[C@H](O)[C@H](C)O2)Oc2ccc(cc2Cl)[C@H]1O [Nor, norvancoycin, reference compound] | 2 (≈ 1.39 µM) | 2 (≈ 1.39 µM) | 2 (≈ 1.39 µM) | 2 (≈ 1.39 µM) | 4 (≈ 2.79 µM) | – | – | – | 2 (≈ 1.39 µM) | 8 (≈ 5.57 µM) | minimum inhibitory concentration (MIC) ([1]; MSSA strain # 68): 2 µg/mL (≈ 1.39 µM); minimum inhibitory concentration (MIC) ([2]; MRSA strain # 134): 2 µg/mL (≈ 1.39 µM); minimum inhibitory concentration (MIC) ([3]; MSSE strain # 3): 2 µg/mL (≈ 1.39 µM); minimum inhibitory concentration (MIC) ([4]; MRSE strain # 24): 2 µg/mL (≈ 1.39 µM); minimum inhibitory concentration (MIC) ([5]; GISA (V) strain # 68): 4 µg/mL (≈ 2.79 µM); minimum inhibitory concentration (MIC) ([6]; GISA (D) strain # 68): 4 µg/mL (≈ 2.79 µM)
– | – | – | – | – | – | – | – | CN[C@H](CC(C)C)C(=O)N[C@H]1C(=O)N[C@@H](CC(N)=O)C(=O)N[C@H]2C(=O)N[C@H]3C(=O)N[C@H](C(=O)N[C@H](C(=O)O)c4cc(O)cc(O)c4-c4cc3ccc4O)[C@H](O)c3ccc(c(Cl)c3)Oc3cc2cc(c3O[C@@H]2O[C@H](CO)[C@@H](O)[C@H](O)[C@H]2O[C@H]2C[C@](C)(N)[C@H](O)[C@H](C)O2)Oc2ccc(cc2Cl)[C@H]1O [Van, vancomycin] | 2 (≈ 1.38 µM) | 2 (≈ 1.38 µM) | 2 (≈ 1.38 µM) | 2 (≈ 1.38 µM) | – | 2 (≈ 1.38 µM) | 2 (≈ 1.38 µM) | 2 (≈ 1.38 µM) | 2 (≈ 1.38 µM) | 8 (≈ 5.52 µM) | MIC [2, 12]: 2 µg/mL (≈ 1.38 µM); MIC [5, 12]: 8 µg/mL (≈ 5.52 µM); MIC ([6]; read-out: minimum inhibitory concentration (MIC), GISA (D) strain # 68): 8 µg/mL (≈ 5.52 µM); MIC ([6]; read-out: minimum inhibitory concentration (MIC), GISA (D) strain # 143): 4 µg/mL (≈ 2.76 µM)
0.5 (≈ 0.306 µM) | 0.5 (≈ 0.306 µM) | 0.5 (≈ 0.306 µM) | 0.5 (≈ 0.306 µM) | 0.5 (≈ 0.306 µM) | 1 (≈ 0.611 µM) | 1 (≈ 0.611 µM) | 1 (≈ 0.611 µM) | CC(C)C[C@H](N)C(=O)N[C@H]1C(=O)N[C@@H](CC(N)=O)C(=O)N[C@H]2C(=O)N[C@H]3C(=O)NC(C(=O)N[C@H](C(=O)O)c4cc(O)cc(O)c4-c4cc3ccc4O)[C@H](O)c3ccc(c(Cl)c3)Oc3cc2cc(c3OC2O[C@H](CO)[C@@H](O)[C@H](O)C2O[C@H]2C[C@](C)(NCc3ccc(-c4ccc(Cl)cc4)cc3)[C@H](O)[C@H](C)O2)Oc2ccc(cc2Cl)[C@H]1O (some centres unmarked) [Compound B, N-Chloro-Biphenyl-Methyl-Desmethyl-vancomycin] | 0.5 (≈ 0.306 µM) | 0.5 (≈ 0.306 µM) | 0.5 (≈ 0.306 µM) | 0.5 (≈ 0.306 µM) | 1 (≈ 0.611 µM) | – | – | – | – | – | –
